# Measurements taken from US20180353524A1, “CANCER TREATMENT USING 2-DEOXY-2-FLUORO-L-FUCOSE IN COMBINATION WITH A CHECKPOINT INHIBITOR” (SEATTLE GENETICS, INC., priority 2015, published 2018).
# What was measured:
# SMAD2 = assay: TGFβ signaling, pSMAD2 western blot in T-cells; format: cell-based, human; details: TGFβ 5 ng/mL for 10 min after 6 h serum starvation
# Protocol: Cells were plated in 6-well dishes (2.5×10^6 cells/well) with serum-free RPMI medium (1% PS, 2.5 mL) and after 6 h of serum starvation, cells were stimulated with TGFβ (5 ng/mL) for 10 min. The cells were harvested, washed twice in PBS, and snap frozen on dry ice followed by storage at −80 ° C. Cells were lysed with RIPA buffer (containing DNAse and protease/phosphatase inhibitors). As described previously, cell lysates were run on SDS-PAGE and examined by western blot on nitrocellulose membranes with anti-pSMAD2 and anti-actin antibodies.
# A20 tumor cells = assay: A20 mouse lymphoma study, survival; format: in vivo, BALB/c mice
# Protocol: A20 cells (ATCC) were cultured in RPMI 1640 with 10% FBS, 10 mM HEPES, 1 mM sodium pyruvate, 50 μM 2-mercaptoethanol and penicillin (100 U/ml)/streptomycin (100 μg/ml) (PS). All mice (BALB/c, n=6/group) were implanted with 1×10^5 A20 tumor cells (i.v.) and were divided into four groups: untreated; treated with 2FF only; treated with anti-PD1 antibody only; and treated with a combination of 2FF with anti-PD1 antibody. 2FF treatment groups received drinking water containing 20 mM 2FF beginning on the day of tumor implantand continued throughout the study. Mice not receiving 2FF were provided with normal drinking water. Anti-PD1 antibody (Ebiosciences, clone J43) treatment groups received three doses of 5 mg/kg every three days starting on day 5 post tumor implant. […] This is compared to only 17% survival in the untreated and the anti-PD1 alone treated groups after about 40 days of treatment lasting to the end of the experiment, and also compared to only 17% survival in 2FF alone treated group after 70 days of treatment also lasting to the end of the experiment at ˜90 days.
# [1] = test system: regulatory T-cells (CD3+, CD4+, CD25+, FOXp3+); assay: Regulatory T-cells in blood of rats dosed by oral gavage for 42 days (flow cytometry); format: in vivo, Sprague-Dawley rats; details: for Treg % Gated, percent change relative to pretest means: rat
# Protocol: Sprague-Dawley rats (CD®[Crl:CD®(SD)] were administered 2-deoxy-2-fluoro-L-fucose by oral gavage daily for 42 consecutive days at doses of 0, 125, 500 or 2000 mg/kg/day. Blood samples (0.4 mL/timepoint) were collected in sodium heparin at pretest and days 2, 7, 22, 43, 49, 56, and 71 of the study. Samples were processed within 24 hours of collection. Aliquots of the specimens were stained with predetermined volumes of previously tested and titered monoclonal antibodies specific for each marker. The red cells in each tube were lysed and after staining the cells were fixed with Versalyse Lysis Buffer solution (Beckman Coulter). The prepared specimens were analyzed on a Beckman-Coulter FC 500 MPL flow cytometer.
# [2] = test system: T-cells (TCR binding of antigen specific tetramers); assay: Tetramer staining of T-cells; format: cell-based, human; details: T-cells expanded with 100 μM
# A20 tumor vaccine model = assay: Serum cytokines in A20 vaccine model; format: in vivo; details: BALB/c mice, with KLH-Idiotype vaccine vs KLH-Idiotype alone, no depletion
# Protocol: KLH-A20 Id Fab was generated as described in Okeley et al PNAS 2012. A20 cells (ATCC) were cultured in RPMI 1640 with 10% FBS, 10 mM HEPES, 1 mM sodium pyruvate, 50 μM 2-mercaptoethanol and penicillin (100 U/ml)/streptomycin (100 μg/ml) (PS) Immunization groups (BALB/c, Harlan) were injected subcutaneously with the KLH-Fab conjugate (50 μg) with TiterMax adjuvant (1:1) on day-21 with a boost on day-7. 2-deoxy-2-fluoro-L-fucose treatment groups received drinking water containing 20 mM 2-deoxy-2-fluoro-L-fucose beginning on day -14. One week after the second vaccination (day 0), all mice received 2.5×10^6 A20 tumor cells (i.v.). 2-deoxy-2-fluoro-L-fucose treatment was continued until day 21 followed by normal drinking water. Depletion of immune cells was accomplished with depleting antibodies administered on days-6, -5, -4, 0 and +7 (200 μg/mouse i.p.). CD4 or CD8 T-cells depletion by anti-CD4 (GK1.5) or -CD8 (53-6.72) antibody was verified in blood at day-1, 7, 14, 21, 29 (FACS analysis). […] Thus CD4 and CD8 T-cells play a role in the combination activity.
# Tissue culture supernatants from T-cell/DC co-cultures described previously were collected and assessed for cytokine changes by Luminex assay. Similarly, blood samples from an A20 vaccine model study were allowed to clot and serum was collected for analysis of cytokines (MCYTOMAG01L1X-13 Mouse Cytokine Magnetic Bead Panel, Millipore).
structure (smiles),measurement,setting,value
C[C@@H]1OC(O)[C@@H](F)[C@H](O)[C@@H]1O (stereo partly drawn) [2-deoxy-2-fluoro-L-fucose],SMAD2 phosphorylation following TGFβ stimulation vs control T-cells,SMAD2,reduced SMAD2 phosphorylation
same,survival compared to the untreated group,"A20 tumor cells; BALB/c mice, i.v. A20 cells, 20 mM 2FF in drinking water, anti-PD1 5 mg/kg q3dx3 from day 5",increased survival compared to the untreated group
same,survival of the mice,"A20 tumor cells; after 70 days of treatment lasting to end of experiment at ~90 days, 20 mM 2FF drinking water",17%
same,"Treg % Gated, percent change relative to pretest means","[1]; F, 125 mg/kg/day oral gavage, Day 2",−54%
same,"Treg % Gated, percent change relative to pretest means","[1]; F, 125 mg/kg/day oral gavage, Day 7",−67%
same,"Treg % Gated, percent change relative to pretest means","[1]; F, 125 mg/kg/day oral gavage, Day 22",−61%
same,"Treg % Gated, percent change relative to pretest means","[1]; F, 125 mg/kg/day oral gavage, Day 43",−64%
same,"Treg % Gated, percent change relative to pretest means","[1]; F, 125 mg/kg/day oral gavage, Day 49, recovery period",−40%
same,"Treg % Gated, percent change relative to pretest means","[1]; F, 125 mg/kg/day oral gavage, Day 56, recovery period",−51%
same,"Treg % Gated, percent change relative to pretest means","[1]; F, 125 mg/kg/day oral gavage, Day 71, recovery period",−45%
same,"Treg % Gated, percent change relative to pretest means","[1]; F, 500 mg/kg/day oral gavage, Day 2",−56%
same,"Treg % Gated, percent change relative to pretest means","[1]; F, 500 mg/kg/day oral gavage, Day 7",−60%
same,"Treg % Gated, percent change relative to pretest means","[1]; F, 500 mg/kg/day oral gavage, Day 22",−60%
same,"Treg % Gated, percent change relative to pretest means","[1]; F, 500 mg/kg/day oral gavage, Day 43",−50%
same,"Treg % Gated, percent change relative to pretest means","[1]; F, 500 mg/kg/day oral gavage, Day 49, recovery period",−43%
same,"Treg % Gated, percent change relative to pretest means","[1]; F, 500 mg/kg/day oral gavage, Day 56, recovery period",−38%
same,"Treg % Gated, percent change relative to pretest means","[1]; F, 500 mg/kg/day oral gavage, Day 71, recovery period",−40%
same,"Treg % Gated, percent change relative to pretest means","[1]; F, 2000 mg/kg/day oral gavage, Day 2",−41%
same,"Treg % Gated, percent change relative to pretest means","[1]; F, 2000 mg/kg/day oral gavage, Day 7",−39%
same,"Treg % Gated, percent change relative to pretest means","[1]; F, 2000 mg/kg/day oral gavage, Day 22",−43%
same,"Treg % Gated, percent change relative to pretest means","[1]; F, 2000 mg/kg/day oral gavage, Day 43",−28%
same,"Treg % Gated, percent change relative to pretest means","[1]; F, 2000 mg/kg/day oral gavage, Day 49, recovery period",−19%
same,"Treg % Gated, percent change relative to pretest means","[1]; F, 2000 mg/kg/day oral gavage, Day 56, recovery period",−16%
same,"Treg % Gated, percent change relative to pretest means","[1]; F, 2000 mg/kg/day oral gavage, Day 71, recovery period",−26%
same,"Treg % Gated, percent change relative to pretest means","[1]; M, 125 mg/kg/day oral gavage, Day 2",−44%
same,"Treg % Gated, percent change relative to pretest means","[1]; M, 125 mg/kg/day oral gavage, Day 7",−64%
same,"Treg % Gated, percent change relative to pretest means","[1]; M, 125 mg/kg/day oral gavage, Day 22",−65%
same,"Treg % Gated, percent change relative to pretest means","[1]; M, 125 mg/kg/day oral gavage, Day 43",−59%
same,"Treg % Gated, percent change relative to pretest means","[1]; M, 125 mg/kg/day oral gavage, Day 49, recovery period",−46%
same,"Treg % Gated, percent change relative to pretest means","[1]; M, 125 mg/kg/day oral gavage, Day 56, recovery period",−47%
same,"Treg % Gated, percent change relative to pretest means","[1]; M, 125 mg/kg/day oral gavage, Day 71, recovery period",−42%
same,"Treg % Gated, percent change relative to pretest means","[1]; M, 500 mg/kg/day oral gavage, Day 2",−61%
same,"Treg % Gated, percent change relative to pretest means","[1]; M, 500 mg/kg/day oral gavage, Day 7",−63%
same,"Treg % Gated, percent change relative to pretest means","[1]; M, 500 mg/kg/day oral gavage, Day 22",−64%
same,"Treg % Gated, percent change relative to pretest means","[1]; M, 500 mg/kg/day oral gavage, Day 43",−58%
same,"Treg % Gated, percent change relative to pretest means","[1]; M, 500 mg/kg/day oral gavage, Day 49, recovery period",−48%
same,"Treg % Gated, percent change relative to pretest means","[1]; M, 500 mg/kg/day oral gavage, Day 56, recovery period",−47%
same,"Treg % Gated, percent change relative to pretest means","[1]; M, 500 mg/kg/day oral gavage, Day 71, recovery period",−48%
same,"Treg % Gated, percent change relative to pretest means","[1]; M, 2000 mg/kg/day oral gavage, Day 2",−42%
same,"Treg % Gated, percent change relative to pretest means","[1]; M, 2000 mg/kg/day oral gavage, Day 7",−43%
same,"Treg % Gated, percent change relative to pretest means","[1]; M, 2000 mg/kg/day oral gavage, Day 22",−51%
same,"Treg % Gated, percent change relative to pretest means","[1]; M, 2000 mg/kg/day oral gavage, Day 43",−29%
same,"Treg % Gated, percent change relative to pretest means","[1]; M, 2000 mg/kg/day oral gavage, Day 49, recovery period",−6%
same,"Treg % Gated, percent change relative to pretest means","[1]; M, 2000 mg/kg/day oral gavage, Day 56, recovery period",−12%
same,"Treg % Gated, percent change relative to pretest means","[1]; M, 2000 mg/kg/day oral gavage, Day 71, recovery period",−13%
same,"relative proportion of regulatory T-cells (CD3+, CD4+, CD25+, FOXp3+) relative to pretest values","[1]; rats, all dosed groups (125, 500, 2000 mg/kg/day), beginning at Day 2",tended to decrease
same,EBV-specific tetramer binding to treated T-cells vs control cells (flow cytometry),[2],increase in EBV-specific tetramer binding
same,"tetramer binding with other antigens (flu, CMV) to treated T-cells vs control cells",[2],slight increases
same,serum cytokines important for immune responses (IL15) in A20 tumor vaccine model,A20 tumor vaccine model,specific increases in cytokines
